Reference: patent publication US20110040088A1, “FUSED HETEROCYCLIC COMPOUNDS” (priority 2003, published 2011)
Structures can show the parent of a compound that is named as a salt. Where two headings read alike, the source gives them in different places.

Tests used:
[1] = target: T1, rat 5-HT7a receptor (Rattus norvegicus, UniProt P32305); test: 5-HT7 receptor radioligand binding ([3H]5-CT, membranes of transfected HEK-293 cells); settings: rat 5-HT7a in HEK-293 membranes, 1 nM [3H]5-CT
T1 construct: expressed in transfected cells

[2] = target: 5-HT2A receptor (UniProt P28223); test: 5-HT2A receptor radioligand binding ([3H]ketanserin);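 also: competitive displacement binding on membranes, either from rat cerebral cortex or from NIH3T3 cells stably expressing human 5-HT2A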
Protocol: The affinity of the compounds for the rat 5-HT2A receptor was evaluated by competitive radioligand binding assay using [^3H]ketanserine as the radioligand. The assay was performed on membranes from rat cortex as previously described (Schotte, A. et al., Psychopharmacology (1996) 124: 57-73). Briefly, brain tissue (rat cortex) was homogenized in 20 volumes per wet weight tissue of Tris-HCl buffer (50 mM, pH 7.4). The total membrane fraction was collected by centrifugation and washed by subsequent centrifugation runs (25 min at 25,000 g at 4° C.). Membranes were re-suspended in Tris-HCl buffer (50 mM, pH 7.4) containing 1 nM [^3H]ketanserin. Non-specific binding was estimated in the presence of 10 μM risperidone.

[3] = target: human recombinant 5-HT2B receptor (Homo sapiens, UniProt P41595); test: 5-HT2B receptor radioligand binding ([3H]mesulergine, CHO membranes);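 also: competitive displacement binding on membranes of CHO cells stably expressing the receptor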
Protocol: (§1) Affinity for 5HT2 Receptor Binding Sites
(§2) Receptor binding was performed using the human recombinant 5-HT2A (GB: X57830), 5-HT2B (GB: Z36748) and 5-HT2c (GB: M81778) receptors. The affinity of the compounds for the 3 different human 5-HT2 receptor subtypes was evaluated by competitive radioligand binding assays using [^3H]ketanserin (h5-HT2A) or [^3H]mesulergine (h5-HT2B and h5-HT2c). The assays were performed on membranes prepared from NIH3T3 stably transfected with h5-HT2A or CHO stably transfected with h5-HT2B and h5-HT2C.

[4] = target: T2, human recombinant 5-HT2C receptor (Homo sapiens, UniProt P28335); test: 5-HT2C receptor radioligand binding ([3H]mesulergine, CHO membranes);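 also: competitive displacement of the tritiated ligand, using membranes from CHO cells stably transfected with the human receptor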
T2 sequence (P28335 33-458): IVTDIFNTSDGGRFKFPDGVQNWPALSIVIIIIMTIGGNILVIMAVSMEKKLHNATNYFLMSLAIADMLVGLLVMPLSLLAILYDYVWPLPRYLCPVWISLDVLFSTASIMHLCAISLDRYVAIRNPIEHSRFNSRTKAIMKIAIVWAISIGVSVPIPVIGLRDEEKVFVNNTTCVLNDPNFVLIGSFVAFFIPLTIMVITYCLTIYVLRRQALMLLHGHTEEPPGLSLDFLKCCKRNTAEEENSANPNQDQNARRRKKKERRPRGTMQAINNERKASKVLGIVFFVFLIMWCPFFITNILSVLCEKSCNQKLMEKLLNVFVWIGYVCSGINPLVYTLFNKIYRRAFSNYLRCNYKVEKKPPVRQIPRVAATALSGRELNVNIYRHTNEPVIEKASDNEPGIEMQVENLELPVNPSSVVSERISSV
Protocol: as §1, §2

[5] = read-out: Ki 5-HT2A, table does not say whether rat cortex or human recombinant (NIH3T3) receptor

T1 sequence (P32305 whole entry): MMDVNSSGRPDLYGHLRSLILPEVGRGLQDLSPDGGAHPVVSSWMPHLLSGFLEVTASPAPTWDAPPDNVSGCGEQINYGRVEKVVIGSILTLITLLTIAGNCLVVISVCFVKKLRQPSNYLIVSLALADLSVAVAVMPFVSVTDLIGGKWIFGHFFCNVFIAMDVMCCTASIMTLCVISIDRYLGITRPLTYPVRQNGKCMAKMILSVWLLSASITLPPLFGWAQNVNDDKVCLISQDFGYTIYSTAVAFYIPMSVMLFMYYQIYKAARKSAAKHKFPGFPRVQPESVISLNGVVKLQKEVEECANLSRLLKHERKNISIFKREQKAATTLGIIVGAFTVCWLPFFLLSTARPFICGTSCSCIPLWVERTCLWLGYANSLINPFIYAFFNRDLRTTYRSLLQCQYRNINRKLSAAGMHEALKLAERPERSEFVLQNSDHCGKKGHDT
Sequence of human recombinant 5-HT2B receptor (P41595 whole entry): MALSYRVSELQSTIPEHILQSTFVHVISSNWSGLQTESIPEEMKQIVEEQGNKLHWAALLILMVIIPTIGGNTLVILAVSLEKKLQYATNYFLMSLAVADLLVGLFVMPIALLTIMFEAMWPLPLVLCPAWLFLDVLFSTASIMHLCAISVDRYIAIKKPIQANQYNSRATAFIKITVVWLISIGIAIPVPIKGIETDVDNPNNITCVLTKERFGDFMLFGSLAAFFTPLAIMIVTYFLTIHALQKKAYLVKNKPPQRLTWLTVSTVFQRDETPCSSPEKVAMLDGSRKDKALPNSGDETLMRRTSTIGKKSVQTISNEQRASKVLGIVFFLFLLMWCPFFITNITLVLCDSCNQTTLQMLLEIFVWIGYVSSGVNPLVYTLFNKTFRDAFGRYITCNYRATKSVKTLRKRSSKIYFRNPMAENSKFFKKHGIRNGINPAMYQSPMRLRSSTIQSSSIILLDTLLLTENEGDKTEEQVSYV

| SMILES | Ki [1] | Ki [2, 5] | Ki [3] | Ki [4] | Ki ([2]; read-out: Ki 5-HT2A, table does not say whether rat cortex or human recombinant (NIH3T3) receptor, citrate salt) |
| --- | --- | --- | --- | --- | --- |
| O=[N+]([O-])c1ccc(-c2cn(Cc3ccccc3)c3c2CNCC3)cc1 [Example 1, 1-Benzyl-3-(4-nitro-phenyl)-4,5,6,7-tetrahydro-1H-pyrrolo[3,2-c]pyridine] | 120 nM |  |  |  |  |
| Cc1c(-c2ccccc2)c2c(n1Cc1ccccc1)CCNC2 [Example 17, 1-Benzyl-2-methyl-3-phenyl-4,5,6,7-tetrahydro-1H-pyrrolo[3,2-c]pyridine] | 70 nM |  |  |  |  |
| Cc1ccc(-c2cn(Cc3ccccc3)c3c2CNCC3)cc1 [Example 18, 1-Benzyl-3-p-tolyl-4,5,6,7-tetrahydro-1H-pyrrolo[3,2-c]pyridine] | 25 nM |  |  |  |  |
| CCCCn1cc(-c2ccc(C)cc2)c2c1CCNC2 [Example 22, 1-Butyl-3-p-tolyl-4,5,6,7-tetrahydro-1H-pyrrolo[3,2-c]pyridine] | 45 nM |  |  |  |  |
| c1ccc(Cn2cc(-c3ccccc3)c3c2CCNCC3)cc1 [Example 26, 1-Benzyl-3-phenyl-1,4,5,6,7,8-hexahydro-pyrrolo[2,3-d]azepine] | 18 nM |  |  |  |  |
| Fc1ccc(-c2nn(Cc3ccccc3)c3c2CCNCC3)cc1 [Example 47, 1-Benzyl-3-(4-fluoro-phenyl)-1,4,5,6,7,8-hexahydro-1,2,6-triaza-azulene] | 7 nM | 9 nM | 64 nM | 24 nM |  |
| CCCN1CCc2c(-c3ccccc3)nn(Cc3ccccc3)c2CC1 [Example 57, 1-Benzyl-3-phenyl-6-propyl-1,4,5,6,7,8-hexahydro-1,2,6-triaza-azulene] | 15 nM |  |  |  |  |
| CCn1nc2c(c1-c1ccc(Cl)cc1)CCNCC2 [Example 64, 3-(4-Chloro-phenyl)-2-ethyl-2,4,5,6,7,8-hexahydro-1,2,6-triaza-azulene] | 19 nM | 18 nM |  |  |  |
| Cc1cccc(Cn2nc(-c3ccc(Cl)cc3)c3c2CCNCC3)c1 [Example 74, 3-(4-Chloro-phenyl)-1-(3-methyl-benzyl)-1,4,5,6,7,8-hexahydro-1,2,6-triaza-azulene] | 5 nM | 100 nM | 94 nM | 180 nM |  |
| OCCCCCn1nc(-c2ccc(Cl)cc2)c2c1CCNCC2 [Example 87, 5-[3-(4-Chloro-phenyl)-5,6,7,8-tetrahydro-4H-1,2,6-triaza-azulen-1-yl]-pentan-1-ol] | 33 nM |  |  |  |  |
| O=[N+]([O-])c1ccc(Cn2nc(-c3ccc(Cl)cc3)c3c2CCNCC3)cc1 [Example 98, 3-(4-Chloro-phenyl)-1-(4-nitro-benzyl)-1,4,5,6,7,8-hexahydro-1,2,6-triaza-azulene] | 40 nM |  |  |  |  |
| CS(=O)(=O)Nc1ccc(Cn2nc(-c3ccccc3)c3c2CCNCC3)cc1 [Example 100, N-[4-(3-Phenyl-5,6,7,8-tetrahydro-4H-1,2,6-triaza-azulen-1-ylmethyl)-phenyl]-methanesulfonamide] | 30 nM |  |  |  |  |
| Fc1ccc(Cn2nc(-c3ccc(Cl)cc3)c3c2CCNCC3)c(F)c1 [Example 108, 3-(4-Chloro-phenyl)-1-(2,4-difluoro-benzyl)-1,4,5,6,7,8-hexahydro-1,2,6-triaza-azulene] | 9 nM |  | 100 nM | 800 nM |  |
| C=CCCn1nc(-c2ccc(Cl)cc2)c2c1CCNCC2 [Example 111, 1-But-3-enyl-3-(4-chloro-phenyl)-1,4,5,6,7,8-hexahydro-1,2,6-triaza-azulene] | 17 nM |  |  |  |  |
| CCC(CC)Cn1nc(-c2ccc(Cl)cc2)c2c1CCNCC2 [Example 114, 3-(4-Chloro-phenyl)-1-(2-ethyl-butyl)-1,4,5,6,7,8-hexahydro-1,2,6-triaza-azulene] | 32 nM |  | 90 nM | 400 nM |  |
| Clc1ccc(-c2nn(CC3CCCCC3)c3c2CCNCC3)cc1 [Example 117, 3-(4-Chloro-phenyl)-1-cyclohexylmethyl-1,4,5,6,7,8-hexahydro-1,2,6-triaza-azulene] | 20 nM |  |  |  |  |
| CC(C)Cn1nc(-c2ccc(Cl)cc2)c2c1CCNCC2 [Example 118, 3-(4-Chloro-phenyl)-1-isobutyl-1,4,5,6,7,8-hexahydro-1,2,6-triaza-azulene] | 8 nM | 20 nM |  |  |  |
| Clc1ccc(-c2nn(Cc3ccc4c(c3)OCO4)c3c2CCNCC3)cc1 [Example 119, 1-Benzo[1,3]dioxo1-5-ylmethyl-3-(4-chloro-phenyl)-1,4,5,6,7,8-hexahydro-1,2,6-triaza-azulene] | 39 nM |  |  |  |  |
| Clc1ccc(-c2nn(CC3CCOCC3)c3c2CCNCC3)cc1 [Example 120, 3-(4-Chloro-phenyl)-1-(tetrahydro-pyran-4-ylmethyl)-1,4,5,6,7,8-hexahydro-1,2,6-triaza-azulene] | 40 nM |  |  |  |  |
| COc1ccc(CN2CCc3[nH]nc(-c4ccc(Cl)cc4)c3CC2)cc1OC [Example 167, 3-(4-Chloro-phenyl)-6-(3,4-dimethoxy-benzyl)-1,4,5,6,7,8-hexahydro-1,2,6-triaza-azulene] | 75 nM |  | 350 nM | 10000 nM |  |
| Clc1ccc(-c2nn(-c3ccccc3)c3c2CCNCC3)cc1 [Example 172, 3-(4-Chloro-phenyl)-1-phenyl-1,4,5,6,7,8-hexahydro-1,2,6-triaza-azulene] | 37 nM |  |  |  |  |
| Cc1ccccc1Cn1nc(-c2ccc(Cl)cc2)c2c1CCNCCC2 [Example 174, 3-(4-Chloro-phenyl)-1-(2-methyl-benzyl)-4,5,6,7,8,9-hexahydro-1H-1,2,7-triaza-cyclopentacyclooctene] | 40 nM |  |  |  |  |
| Clc1ccc(-c2c3c(nn2C2CCCCC2)CCNCC3)cc1 [Example 178, 3-(4-Chloro-phenyl)-2-cyclohexyl-2,4,5,6,7,8-hexahydro-1,2,6-triaza-azulene] | 85 nM | 3 nM | 3 nM |  |  |
| CCC(CC)n1nc2c(c1-c1cccs1)CCNCC2 [Example 191, 2-(1-Ethyl-propyl)-3-thiophen-2-yl-2,4,5,6,7,8-hexahydro-1,2,6-triaza-azulene] | 30 nM |  |  |  |  |
| CCn1nc2c(c1-c1ccc(C)cc1)CCNCC2 [Example 214, 2-Ethyl-3-p-tolyl-2,4,5,6,7,8-hexahydro-1,2,6-triaza-azulene] | 5 nM |  | 2 nM | 170 nM |  |
| CC(C)(C)n1nc2c(c1-c1ccccc1)CCNCC2 [Example 215, 2-tert-Butyl-3-phenyl-2,4,5,6,7,8-hexahydro-1,2,6-triaza-azulene] | 30 nM | 8 nM | 95 nM |  |  |
| CC(C)n1nc2c(c1-c1ccc([N+](=O)[O-])cc1)CCNCC2 [Example 253, 2-Isopropyl-3-(4-nitro-phenyl)-2,4,5,6,7,8-hexahydro-1,2,6-triaza-azulene] | 75 nM |  | 25 nM | 625 nM |  |
| Clc1ccc(-c2nn(C3CCCCCCC3)c3c2CCNCC3)cc1 [Example 255, 3-(4-Chloro-phenyl)-1-cyclooctyl-1,4,5,6,7,8-hexahydro-1,2,6-triaza-azulene] | 60 nM |  |  |  |  |
| CCc1ccc(-c2c3c(nn2CC)CCNCC3)cc1 [Example 257, 2-Ethyl-3-(4-ethyl-phenyl)-2,4,5,6,7,8-hexahydro-1,2,6-triaza-azulene] | 9 nM |  | 2 nM | 110 nM |  |
| Clc1ccc(-c2nn(Cc3ccccc3)c3c2CCNCC3)cc1 [Example 273, 1-Benzyl-3-(4-chloro-phenyl)-1,4,5,6,7,8-hexahydro-1,2,6-triaza-azulene citrate salt] | 5 nM |  |  |  | 400 nM |
